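Growth conditions: 96-well plates. Treatment: test compound, 48 hours, 5 concentrations. Analysis: linear interpolation between bracketing concentrations; unreached endpoints set to highest concentration. GI50: concentration for 50% inhibition of growth.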 Activity calls are given as the source filed them. No stated cut-off is given here; in the data, active = GI50 up to about 1.1 µM and inactive = higher.
How the values were obtained:
Test in all cases: DTP human tumour cell line panel, 48 h
[1] = test system: A549
[2] = test system: ACHN
[3] = test system: BT-549
[4] = test system: EKVX
[5] = test system: HCT-116
[6] = test system: HCT-15
[7] = test system: HL-60
[8] = test system: HOP-92
[9] = test system: HT-29
[10] = test system: IGROV-1
[11] = test system: MOLT-4
[12] = test system: NCI-H23
[13] = test system: NCI-H460
[14] = test system: OVCAR-8
[15] = test system: SF-268
[16] = test system: SK-MEL-28
[17] = test system: SK-OV-3
[18] = test system: TK-10
[19] = test system: UACC-62
[20] = test system: UO-31

Measured: GI50

O=C1CSC(c2ccccc2)N1c1nc2cc3sc(N4C(=O)CSC4c4ccccc4)nc3cc2s1 (stereo not given)
10.2 µM: [6]
inactive: [1] 8.17 µM | [2] 35.6 µM | [3] 37.6 µM | [4] 22.1 µM | [5] 24.6 µM | [7] > 63.7 µM | [8] > 100 µM | [9] 19.1 µM | [10] 23.4 µM | [11] 5.86 µM | [12] 15 µM | [13] 3.1 µM | [14] 70.8 µM | [15] > 87.3 µM | [16] > 100 µM | [17] > 100 µM | [18] 53.2 µM | [19] 56.8 µM | [20] 40.6 µM

COc1ccc2c(c1)/C(=C\c1c(Cl)nc3n1CCS3)C(=O)N2
inactive: [1] 5.62 µM | [2] 11 µM | [3] 6.76 µM | [4] 18.3 µM | [5] 3.73 µM | [7] 3.58 µM | [8] 46.5 µM | [9] 3.25 µM | [10] 7.28 µM | [11] 4.01 µM | [12] 11.2 µM | [13] 3.71 µM | [14] 19.7 µM | [15] 13.8 µM | [16] 18.7 µM | [17] 13.1 µM | [18] 5 µM | [19] 4 µM | [20] 5.86 µM
3.84 µM: [6]

O=C(O)C1SCCS1
> 100 µM: [6]
inactive: [1] > 100 µM | [2] > 100 µM | [3] > 100 µM | [4] > 100 µM | [5] > 100 µM | [7] > 100 µM | [8] > 100 µM | [9] > 100 µM | [10] > 100 µM | [11] > 100 µM | [12] > 100 µM | [13] > 100 µM | [14] > 100 µM | [15] > 100 µM | [16] > 100 µM | [17] > 100 µM | [18] > 100 µM | [19] > 100 µM | [20] > 100 µM

Cc1cccc(C)c1NC(=O)/C(Cl)=C(/Cl)C(=O)O
16.2 µM: [6]
inactive: [1] 20.7 µM | [2] 15.4 µM | [3] 17.6 µM | [4] 19.5 µM | [5] 21.1 µM | [7] 2.63 µM | [8] 15.5 µM | [9] 17.5 µM | [10] 20.8 µM | [11] 3.99 µM | [12] 19.1 µM | [13] 30.8 µM | [14] 20.2 µM | [15] 17.2 µM | [16] 18.3 µM | [17] 21.8 µM | [18] 14.7 µM | [19] 13.7 µM | [20] 14.8 µM

N=C(N)NS(=O)(=O)c1ccc(NC(=O)c2cccc3c(NNc4ccc(S(=O)(=O)N=C(N)N)cc4)c4ccccc4nc23)cc1
37.8 µM: [6]
inactive: [1] > 100 µM | [2] 75 µM | [3] 33.3 µM | [4] 30.8 µM | [5] 35.7 µM | [7] 35.5 µM | [8] 47.4 µM | [9] 31.1 µM | [10] 51.5 µM | [11] 30.8 µM | [12] 52.4 µM | [13] 32.7 µM | [14] 53.5 µM | [15] 61.9 µM | [16] 37.2 µM | [17] > 100 µM | [18] > 100 µM | [19] 46.9 µM | [20] > 100 µM

Clc1ccc2ns[s+]c2c1
inactive: [1] 5.24 µM | [3] 16.3 µM | [4] 17.7 µM | [8] 22.5 µM | [9] 3.39 µM | [10] 40.3 µM | [11] 1.71 µM | [12] 11.7 µM | [13] 5.83 µM | [14] 20.4 µM | [15] 11.3 µM | [16] 17.7 µM | [17] > 100 µM | [18] > 25.6 µM | [20] 6.44 µM
active: [2] 0.449 µM | [5] 1.03 µM | [7] 1.09 µM | [19] 0.275 µM
0.33 µM: [6]

NC(=O)NO [HYDROXYUREA]
871 µM: [6]
inactive: [1] 514 µM | [2] 108 µM | [3] 1660 µM | [4] 1790 µM | [5] 995 µM | [7] 18.4 µM | [8] 895 µM | [9] 605 µM | [10] 1110 µM | [11] 222 µM | [12] 710 µM | [13] 344 µM | [14] 504 µM | [15] 524 µM | [16] 1920 µM | [17] 1680 µM | [18] 1980 µM | [19] 291 µM | [20] 508 µM

CCc1n[nH]c(=O)n1N
> 100 µM: [6]
inactive: [1] > 100 µM | [2] > 100 µM | [3] > 100 µM | [4] > 100 µM | [5] > 100 µM | [7] > 100 µM | [8] > 100 µM | [9] > 100 µM | [10] > 100 µM | [11] > 100 µM | [12] > 100 µM | [13] > 100 µM | [14] > 100 µM | [15] > 100 µM | [16] > 100 µM | [17] > 100 µM | [18] > 100 µM | [19] > 100 µM | [20] > 100 µM

CCOC(=O)CO/N=C1/C(=C2/C(=O)Nc3ccccc32)Nc2ccccc21
81.7 µM: [6]
inactive: [1] 24.5 µM | [2] 67 µM | [3] 78.3 µM | [4] 13.4 µM | [5] 5.12 µM | [7] > 100 µM | [8] 16.9 µM | [9] > 100 µM | [10] 2.58 µM | [11] 22 µM | [12] 17 µM | [13] > 100 µM | [14] 6.21 µM | [15] 27 µM | [16] > 100 µM | [17] 13.6 µM | [18] 86.3 µM | [19] 48.6 µM | [20] 86.7 µM

COc1cc(C2c3cc4c(cc3OC(N3CCCC3)C2C)OCO4)cc(OC)c1O (stereo not given)
14 µM: [6]
inactive: [1] 19 µM | [2] 28.6 µM | [3] 13.3 µM | [4] 32.5 µM | [5] 9.98 µM | [7] 4.58 µM | [8] 19.4 µM | [9] 17.4 µM | [10] 19.4 µM | [11] 24.6 µM | [12] 23.4 µM | [13] 16.3 µM | [14] 24 µM | [15] 22.9 µM | [16] > 43.9 µM | [17] 11.5 µM | [18] 19.4 µM | [19] 5.16 µM | [20] 44.3 µM

Clc1c2ncccc2cc2nn[nH]c12
> 100 µM: [6]
inactive: [1] > 100 µM | [2] > 100 µM | [3] > 100 µM | [4] > 100 µM | [5] > 100 µM | [7] 14.5 µM | [8] 54 µM | [9] > 100 µM | [10] 33 µM | [11] 15.8 µM | [12] > 100 µM | [13] 49.2 µM | [14] > 100 µM | [15] > 100 µM | [16] > 100 µM | [17] > 100 µM | [18] > 100 µM | [19] > 100 µM | [20] 82.6 µM

Source: ChEMBL document CHEMBL1201862, “PubChem BioAssay data set” (2004)
